From patent US20220017512A1 (SHANGHAI ENNOVABIO PHARMACEUTICALS CO., LTD., priority 2018, published 2022) come the findings set out here.

Structures are written as SMILES.

What all share (format): biochemical
For one experiment, the target named is T1, Recombinant human TRKC (Homo sapiens, UniProt Q16288).
T1 construct: purchased Carna Biosciences
Description: In vitro activity test on TRKC kinase (HTRF KinEASE TK). The settings on record: 25.64 μM ATP, 40 min. The procedure, abridged: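 Recombinant human TRKC (0.037 ng/μL) with 1 μM biotinylated TK substrate, 25.64 μM ATP, 5 mM MgCl2, 1 mM DTT, 40 min at room temperature; compound 1 μM to 0.05 nM, 1% DMSO. HTRF 665/620 ratio after overnight detection; IC50 from 4-parameter fit.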
In general terms: TR-FRET usually uses a lanthanide donor and a delayed reading to cut background.

Experiment [1] addresses T2, recombinant human TRKA (G667C) (Homo sapiens, UniProt P04629, G667C).
T2 construct: purchased SignalChem
Description: In vitro activity test on mutant TRKA (G667C) (HTRF KinEASE TK). The settings on record: 5.5 μM ATP, 30 min. As to the method: Biological Test Example 2 In Vitro Activity Test on Mutant TRKA (G595R), TRKA (G667C) and TRKC (G623R)
The recombinant human TRKA (G595R), TRKA (G667C) and TRKC (G623R) proteins were purchased from SignalChem. HTRF kinEASE TK kit was purchased from CisbioBioassays. Synergy Neo 2 of Biotek was used to read the plate.
The tested compound was subjected to 4-fold serial dilution to reach a final concentration of 1 μM to 0.004 nM (10 concentrates), duplicates for each concentration; and 1% DMSO was present in the detection reaction.
0.026 ng/μL TRKA (G667C) kinase, 1 μM TK Substrate-biotin polypeptide substrate, 5.5 μm ATP, 1× enzymatic buffer, 5 mM MgCl2, and 1 mM DTT. The detection plate was White Proxiplate 384-Plus plate (PerkinElmer), and incubated at room temperature for 30 min, the assay volume was 10 μL.
10 μL of detection reagent was added to the plate (containing 0.125 μM SA-XL665 and 5 μL 1×TK-Antibody) and incubated overnight at room temperature, and Synergy Neo 2 was used to read the plate.
The value of 665/620 Ratio minus the value of negative control wells without enzyme, then the obtained value was converted according to the following formula into inhibition rate (%)=(1−Ratiotest/Ratiomax)×100%. Ratiomax was a positive control without tested compound, and Ratiotest was the value of each concentration of different compounds. IC50 (nM) data was obtained by 4 parameter curve fitting (see Table 1).

In another experiment the target is T3, Recombinant human TRKB (Homo sapiens, UniProt Q16620).
T3 construct: purchased Carna Biosciences
Description: In vitro activity test on TRKB kinase (HTRF KinEASE TK). The settings on record: 4.77 μM ATP, 50 min. The procedure, abridged:
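Recombinant human TRKB (0.037 ng/μL) phosphorylated 1 μM biotinylated TK substrate at 4.77 μM ATP, 5 mM MgCl2, 1% DMSO, 50 min at room temperature; compounds 1 μM–0.05 nM. HTRF KinEASE detection overnight; 665/620 ratio converted to inhibition and IC50 from 4-parameter fit.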

The target in another experiment is T4, Recombinant human TRKA (Homo sapiens, UniProt P04629).
T4 construct: purchased Carna Biosciences
Description: In vitro activity test on TRKA kinase (HTRF KinEASE TK). The following applies: 14.68 μM ATP, 40 min. In outline:
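Reaction: 0.2 ng/μL TRKA, 1 μM biotinylated TK substrate, 14.68 μM ATP, 5 mM MgCl2, 1 mM DTT, 1% DMSO, 40 min at room temperature. Compounds tested at 1 μM to 0.05 nM (10-point, 3-fold, duplicate). HTRF 665/620 ratio converted to % inhibition versus no-compound control; IC50 by 4-parameter fit.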

Experiment [2] has as its target T5, recombinant human TRKA (G595R) (Homo sapiens, UniProt P04629, G595R).
T5 construct: purchased SignalChem
Nature of the experiment: In vitro activity test on mutant TRKA (G595R) (HTRF KinEASE TK). The following applies: 4.5 μM ATP, 30 min. In outline: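 HTRF KinEASE TK format: 0.12 ng/μL recombinant TRKA (G595R), 1 μM biotinylated TK substrate, 4.5 μM ATP, 5 mM MgCl2, 1 mM DTT, 1% DMSO, 30 min at room temperature; detection overnight. IC50 from 10-point 4-fold series (1 μM to 0.004 nM, duplicates), 665/620 ratio, 4-parameter fit.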

T4 sequence (P04629 33-796): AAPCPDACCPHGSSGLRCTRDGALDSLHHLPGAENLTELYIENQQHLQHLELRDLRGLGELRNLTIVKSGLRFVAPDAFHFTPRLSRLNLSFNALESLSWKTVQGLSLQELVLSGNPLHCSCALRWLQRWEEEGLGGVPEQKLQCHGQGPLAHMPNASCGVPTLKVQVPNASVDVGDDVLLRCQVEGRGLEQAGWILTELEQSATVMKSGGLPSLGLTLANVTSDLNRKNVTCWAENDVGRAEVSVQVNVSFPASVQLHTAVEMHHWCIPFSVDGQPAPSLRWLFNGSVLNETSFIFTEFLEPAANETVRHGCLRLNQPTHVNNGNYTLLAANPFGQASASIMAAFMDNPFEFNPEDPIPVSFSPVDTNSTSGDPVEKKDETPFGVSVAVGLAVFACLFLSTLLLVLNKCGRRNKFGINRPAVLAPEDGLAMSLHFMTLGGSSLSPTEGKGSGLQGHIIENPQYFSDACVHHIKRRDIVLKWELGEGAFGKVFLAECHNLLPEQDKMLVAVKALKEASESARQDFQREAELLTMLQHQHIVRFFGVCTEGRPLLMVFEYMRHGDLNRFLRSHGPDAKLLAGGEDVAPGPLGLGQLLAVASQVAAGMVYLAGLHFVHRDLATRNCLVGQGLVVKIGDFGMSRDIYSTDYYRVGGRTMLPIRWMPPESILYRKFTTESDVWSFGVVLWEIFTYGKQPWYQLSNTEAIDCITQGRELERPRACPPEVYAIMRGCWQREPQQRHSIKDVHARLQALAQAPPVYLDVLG
T3 sequence (Q16620 32-822): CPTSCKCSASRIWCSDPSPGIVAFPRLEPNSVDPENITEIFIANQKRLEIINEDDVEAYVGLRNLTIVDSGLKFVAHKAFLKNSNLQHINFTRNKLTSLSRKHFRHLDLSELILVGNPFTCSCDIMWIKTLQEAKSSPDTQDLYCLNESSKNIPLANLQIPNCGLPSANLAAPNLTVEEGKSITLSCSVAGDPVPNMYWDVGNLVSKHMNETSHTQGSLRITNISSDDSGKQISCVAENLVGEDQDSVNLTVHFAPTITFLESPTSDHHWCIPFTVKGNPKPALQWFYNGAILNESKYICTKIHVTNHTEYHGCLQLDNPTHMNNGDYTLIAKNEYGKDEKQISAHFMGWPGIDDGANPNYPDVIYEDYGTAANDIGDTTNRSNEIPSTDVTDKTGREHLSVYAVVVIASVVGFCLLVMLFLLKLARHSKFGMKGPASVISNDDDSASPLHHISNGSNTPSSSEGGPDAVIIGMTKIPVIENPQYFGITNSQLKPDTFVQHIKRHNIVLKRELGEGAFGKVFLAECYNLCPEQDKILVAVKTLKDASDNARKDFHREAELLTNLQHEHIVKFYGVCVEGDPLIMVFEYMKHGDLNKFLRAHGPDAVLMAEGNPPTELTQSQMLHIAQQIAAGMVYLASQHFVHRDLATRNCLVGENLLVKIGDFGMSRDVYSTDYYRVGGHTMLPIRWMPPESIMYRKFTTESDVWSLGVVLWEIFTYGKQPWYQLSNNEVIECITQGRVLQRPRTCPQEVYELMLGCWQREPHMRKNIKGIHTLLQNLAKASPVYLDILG
T5 sequence (P04629 33-796 G595R): as the sequence (P04629 33-796) above, with G563R counted along it
T1 sequence (Q16288 32-839): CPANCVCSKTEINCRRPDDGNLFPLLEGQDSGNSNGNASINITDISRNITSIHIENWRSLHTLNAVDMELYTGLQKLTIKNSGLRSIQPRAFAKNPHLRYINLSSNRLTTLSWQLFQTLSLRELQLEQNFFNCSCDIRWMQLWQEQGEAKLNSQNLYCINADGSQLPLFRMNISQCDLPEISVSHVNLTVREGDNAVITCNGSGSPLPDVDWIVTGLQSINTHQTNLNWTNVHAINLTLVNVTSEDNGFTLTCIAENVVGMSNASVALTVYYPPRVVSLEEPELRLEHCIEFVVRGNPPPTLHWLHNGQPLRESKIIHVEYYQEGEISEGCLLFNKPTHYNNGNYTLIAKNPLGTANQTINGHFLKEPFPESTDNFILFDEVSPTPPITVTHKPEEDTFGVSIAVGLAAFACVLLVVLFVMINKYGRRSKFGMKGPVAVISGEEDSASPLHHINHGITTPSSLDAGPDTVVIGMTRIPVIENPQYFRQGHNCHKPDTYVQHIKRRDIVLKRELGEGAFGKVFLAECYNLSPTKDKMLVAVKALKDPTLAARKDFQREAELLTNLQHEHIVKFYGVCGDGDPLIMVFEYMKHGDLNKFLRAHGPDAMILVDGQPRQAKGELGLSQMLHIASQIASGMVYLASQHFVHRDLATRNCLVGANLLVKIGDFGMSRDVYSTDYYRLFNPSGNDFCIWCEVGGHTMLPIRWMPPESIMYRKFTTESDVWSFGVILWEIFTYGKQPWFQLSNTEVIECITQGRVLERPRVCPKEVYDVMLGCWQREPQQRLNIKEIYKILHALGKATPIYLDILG
T2 sequence (P04629 33-796 G667C): as the sequence (P04629 33-796) above, with G635C counted along it

In the case of `Fc1ccc(F)c([C@H]2CCCN2c2ccc3nccc(-c4cnn(C5CCNCC5)c4F)c3n2)c1` [Example 15, (R)-2-(2-(2,5-Difluorophenyl)pyrrolidin-1-yl)-8-(5-fluoro-1-(piperidin-4-yl)-1H-pyrazole-4-yl)-1,5-naphthyridine], the half-inhibitory concentration (IC50) was less than 1 nM at Recombinant human TRKC; less than 10 nM in experiment [1]; less than 1 nM at Recombinant human TRKB; less than 1 nM at Recombinant human TRKA; less than 1 nM in experiment [2].

As to `Fc1ccc(F)c([C@H]2C[C@H](F)CN2c2ccc3ncc(Cl)c(-c4ccn(C5CCNCC5)c4)c3n2)c1` [Example 48, 7-chloro-2-((2R,4S)-2-(2,5-difluorophenyl)-4-fluoropyrrolidin-1-yl)-8-(1-(piperidin-4-yl)-1H-pyrrol-3-yl)-1,5-naphthyridine], the IC50 is less than 1 nM at Recombinant human TRKC; less than 10 nM in experiment [1]; less than 1 nM at Recombinant human TRKB; less than 1 nM on Recombinant human TRKA; less than 10 nM in experiment [2].

On to `O=C(Nc1ccnc2ccc(N3C[C@@H](F)C[C@@H]3c3cc(F)ccc3F)nc12)N1CC[C@H](O)C1` [Example 26, (S)—N-(6-((2R,4S)-2-(2,5-difluorophenyl)-4-fluoropyrrolidin-1-yl)-1,5-naphthyridin-4-yl)-3-hydroxypyrrolidin-1-carboxamide], for which the half-inhibitory concentration (IC50) (at Recombinant human TRKC; in experiment [1]; at Recombinant human TRKB; at Recombinant human TRKA; in experiment [2]) was less than 1 nM in each case.

As for `NC(=O)CN1CCC(n2cc(-c3c(F)cnc4ccc(N5C[C@@H](F)C[C@@H]5c5cc(F)ccc5F)nc34)cn2)CC1` [Example 74, 2-(4-(4-(6-((2R,4S)-2-(2,5-difluorophenyl)-4-fluoropyrrolidin-1-yl)-3-fluoro-1,5-naphthyridin-4-yl)-1H-pyrazol-1-yl)piperidin-1-yl)acetamide], the IC50 at Recombinant human TRKC is less than 1 nM; in experiment [1] it was less than 10 nM; at Recombinant human TRKB it was less than 1 nM; at Recombinant human TRKA, less than 1 nM; in experiment [2], less than 10 nM.

For `OC1CCC(Nc2ccnc3ccc(N4C[C@@H](F)C[C@@H]4c4cc(F)ccc4F)nc23)C1` (stereo partly drawn) [Example 2, 3-((6-((2R,4S)-2-(2,5-difluorophenyl)-4-fluoropyrrolidin-1-yl)-1,5-naphthyridin-4-yl)amino)cyclopentan-1-ol], the IC50 (on Recombinant human TRKC; in experiment [1]; at Recombinant human TRKB; on Recombinant human TRKA; in experiment [2]) was less than 10 nM each time.

Consider `CS(=O)(=O)n1cc(-c2c(Cl)cnc3ccc(N4C[C@@H](F)C[C@@H]4c4cc(F)ccc4F)nc23)cn1` [Example 25, 7-chloro-2-((2R,4S)-2-(2,5-difluorophenyl)-4-fluoropyrrolidin-1-yl)-8-(1-(methylsulfonyl)-1H-pyrazol-4-yl)-1,5-naphthyridine], for which the IC50 at Recombinant human TRKC was less than 1 nM; in experiment [1], less than 10 nM; on Recombinant human TRKB it was less than 1 nM; on Recombinant human TRKA, less than 10 nM; in experiment [2] it was less than 1 nM.

With `CC(C)(O)Cn1cc(-c2c(Cl)cnc3ccc(N4C[C@@H](F)C[C@@H]4c4cc(F)ccc4F)nc23)cn1` [Example 35, 1-(4-(3-chloro-6-((2R,4S)-2-(2,5-difluorophenyl)-4-fluoropyrrolidin-1-yl)-1,5-naphthyridin-4-yl)-1H-pyrazol-1-yl)-2-methylpropan-2-ol], the half-inhibitory concentration (IC50) was less than 1 nM on Recombinant human TRKC; less than 10 nM in experiment [1]; less than 1 nM on Recombinant human TRKB; less than 1 nM on Recombinant human TRKA; less than 10 nM in experiment [2].

`COC1(C)CC(n2cc(-c3c(Cl)cnc4ccc(N5C[C@@H](F)C[C@@H]5c5cc(F)ccc5F)nc34)cn2)C1` (stereo partly drawn) [Example 38, 7-chloro-2-((2R,4S)-2-(2,5-difluorophenyl)-4-fluoropyrrolidin-1-yl)-8-(1-(3-methoxy-3-methylcyclobutyl)-1H-pyrazol-4-yl)-1,5-naphthyridine]: the IC50 at Recombinant human TRKC was less than 10 nM; in experiment [1], less than 50 nM; at Recombinant human TRKB it was less than 10 nM; on Recombinant human TRKA it was less than 1 nM; in experiment [2], less than 50 nM.

With `Fc1ccc(F)c([C@H]2C[C@H](F)CN2c2ccc3ncc(Cl)c(-c4cnn(C5CNC5)c4)c3n2)c1` [Example 22, 8-(1-(azetidine-3-yl)-1H-pyrazol-4-yl)-7-chloro-2-((2R,4S)-2-(2,5-difluorophenyl)-4-fluoropyrrolidin-1-yl)-1,5-naphthyridine], the IC50 (at Recombinant human TRKC; in experiment [1]; on Recombinant human TRKB; at Recombinant human TRKA; in experiment [2]) was less than 1 nM each time.

As to `O[C@H]1CCN(C(=S)Nc2ccnc3ccc(N4C[C@@H](F)C[C@@H]4c4cc(F)ccc4F)nc23)C1` [Example 79, (S)-N-(6-((2R,4S)-2-(2,5-difluorophenyl)-4-fluoropyrrolidin-1-yl)-1,5-naphthyridin-4-yl)-3-hydroxypyrrolidine-1-methylthioamide], the IC50 at Recombinant human TRKC is less than 1 nM; in experiment [1], less than 10 nM; on Recombinant human TRKB it was less than 1 nM; at Recombinant human TRKA, less than 1 nM; in experiment [2] it was less than 1 nM.

Consider `Fc1ccc(F)c([C@H]2C[C@H](F)CN2c2ccc3ncc(Cl)c(-c4cnn([C@H]5CCNC5)c4)c3n2)c1` [Example 57, 7-chloro-2-((2R,4S)-2-(2,5-difluorophenyl)-4-fluoropyrrolidin-1-yl)-8-(1-((S)-pyrrolidin-3-yl)-1H-pyrazol-4-yl)-1,5-naphthyridine], for which the IC50 is less than 1 nM on Recombinant human TRKC; less than 10 nM in experiment [1]; less than 10 nM on Recombinant human TRKB; less than 1 nM at Recombinant human TRKA; less than 1 nM in experiment [2].

In the case of `O=S(=O)(Nc1ccnc2ccc(N3C[C@@H](F)C[C@@H]3c3cc(F)ccc3F)nc12)N1CC[C@H](O)C1` [Example 69, (S)—N-(6-((2R,4S)-2-(2,5-difluorophenyl)-4-fluoropyrrolidin-1-yl)-1,5-naphthyridin-4-yl)-3-hydroxypyrrolidin-1-sulfonamide], the IC50 on Recombinant human TRKC was less than 1 nM; in experiment [1], less than 10 nM; on Recombinant human TRKB, less than 1 nM; on Recombinant human TRKA, less than 1 nM; in experiment [2], less than 1 nM.

In the case of `CC1(O)CC(n2cc(-c3c(Cl)cnc4ccc(N5C[C@@H](F)C[C@@H]5c5cc(F)ccc5F)nc34)cn2)C1` (stereo partly drawn) [Example 39, 3-(4-(3-chloro-6-((2R,4S)-2-(2,5-difluorophenyl)-4-fluoropyrrolidin-1-yl)-1,5-naphthyridin-4-yl)-1H-pyrazol-1-yl)-1-methylcyclobutan-1-ol], the half-inhibitory concentration (IC50) at Recombinant human TRKC was less than 1 nM; in experiment [1], less than 10 nM; at Recombinant human TRKB, less than 1 nM; at Recombinant human TRKA, less than 1 nM; in experiment [2], less than 10 nM.

Turning to `O=C(Nc1c(Cl)cnc2ccc(N3C[C@@H](F)C[C@@H]3c3cc(F)ccc3F)nc12)N1CC[C@H](O)C1` [Example 49, (S)-N-(3-Chloro-6-((2R,4S)-2-(2,5-difluorophenyl)-4-fluoropyrrolidin-1-yl)-1,5-naphthyridin-4-yl)-3-hydroxypyrrolidin-1-carboxamide], the IC50 was less than 10 nM at Recombinant human TRKC; less than 10 nM in experiment [1]; less than 1 nM on Recombinant human TRKB; less than 1 nM at Recombinant human TRKA; less than 10 nM in experiment [2].

On to `Fc1ccc(F)c([C@H]2C[C@H](F)CN2c2ccc3ncc(Cl)c(-c4cn(C5CCNCC5)nn4)c3n2)c1` [Example 67, 7-chloro-2-((2R,4S)-2-(2,5-difluorophenyl)-4-fluoropyrrolidin-1-yl)-8-(1-(piperidin-4-yl)-2H-1,2,3-triazol-4-yl)-1,5-naphthyridine], for which the IC50 was less than 1 nM at Recombinant human TRKC; less than 10 nM in experiment [1]; less than 1 nM on Recombinant human TRKB; less than 1 nM at Recombinant human TRKA; less than 10 nM in experiment [2].

What is called IC50 is the concentration needed to halve the response being measured.
